Tests used:
Format in all cases: functional
NCI-H1299 = assay: Inhibition of basal glucose transport in human H1299 cells assessed as inhibition of [3H]2-deoxyglucose uptake at 30 uM after 30 mins by scintillation counting relative to control
[1] = Cytotoxicity against human H1299 cells at 30 uM after 48 hrs by MTT assay relative to control; settings: NCI-H1299, 48 h, read-out: GI
HeLa = assay: Inhibition of basal glucose transport in human HeLa cells assessed as inhibition of [3H]2-deoxyglucose uptake at 30 uM after 30 mins by scintillation counting
RKO = assay: Inhibition of basal glucose transport in human RKO cells assessed as inhibition of [3H]2-deoxyglucose uptake at 30 uM after 30 mins by scintillation counting
MCF7 = assay: Inhibition of basal glucose transport in human MCF7 cells assessed as inhibition of [3H]2-deoxyglucose uptake at 30 uM after 30 mins by scintillation counting

| SMILES | inhibition at 30 µM (NCI-H1299) | inhibition of growth at 30 µM [1] | inhibition at 30 µM (HeLa) | inhibition at 30 µM (RKO) | inhibition at 30 µM (MCF7) |
| --- | --- | --- | --- | --- | --- |
| O=C(Oc1ccccc1OC(=O)c1ccc(O)cc1)c1ccc(O)cc1 | 57.5% |  |  |  |  |
| O=C(Oc1ccc(Cl)cc1OC(=O)c1cc(O)c(O)c(O)c1)c1cc(O)c(O)c(O)c1 | 84.4% |  |  |  |  |
| O=C(Oc1cccc(F)c1OC(=O)c1cc(O)cc(O)c1)c1cc(O)cc(O)c1 | 94% | 35% |  |  |  |
| O=C(Oc1ccc(Cl)cc1OC(=O)c1ccccc1O)c1ccccc1O | 51.6% | 26.6% |  |  |  |
| O=C(Oc1cccc(F)c1OC(=O)c1ccc(O)cc1)c1ccc(O)cc1 | 92.6% | 35.9% |  |  |  |
| COc1cccc(OC(=O)c2cc(O)c(O)c(O)c2)c1OC(=O)c1cc(O)c(O)c(O)c1 | 58.4% | 36% | 46.3% | 57.2% | 33% |
| COc1cccc(OC)c1C(=O)Oc1cccc(OC(=O)c2c(OC)cccc2OC)c1OC(=O)c1c(OC)cccc1OC | 75.8% |  |  |  |  |
| O=C(Oc1cccc(OC(=O)c2cc(O)c(O)c(O)c2)c1OC(=O)c1cc(O)c(O)c(O)c1)c1cc(O)c(O)c(O)c1 | 86.1% | 39.9% | 36% | 58.1% | 60.4% |
| O=C(Oc1cccc(OC(=O)c2ccccc2O)c1OC(=O)c1ccccc1O)c1ccccc1O | 74.7% |  |  |  |  |
| COc1ccc(C(=O)Oc2cccc(OC(=O)c3ccc(OC)c(OC)c3)c2OC(=O)c2ccc(OC)c(OC)c2)cc1OC | 0% | 10% |  |  |  |
| O=C(Oc1cccc(F)c1OC(=O)c1ccc(O)c(O)c1)c1ccc(O)c(O)c1 | 88.7% | 41.5% |  |  |  |
| COc1cccc(OC(=O)c2ccc(O)c(O)c2)c1OC(=O)c1ccc(O)c(O)c1 | 0% | 32.4% |  |  |  |
| O=C(Oc1cccc(F)c1OC(=O)c1cc(O)c(O)c(O)c1)c1cc(O)c(O)c(O)c1 | 81.1% |  |  |  |  |
| O=C(Oc1ccccc1OC(=O)c1cc(O)c(O)c(O)c1)c1cc(O)c(O)c(O)c1 | 32.1% |  |  |  |  |
| O=C(Oc1ccc(Cl)cc1OC(=O)c1ccc(O)c(O)c1)c1ccc(O)c(O)c1 | 94.4% | 45.2% |  |  |  |
| COc1cc(C(=O)Oc2ccc(Cl)cc2OC(=O)c2cc(OC)c(OC)c(OC)c2)cc(OC)c1OC | 1.7% | 20.6% |  |  |  |
| O=C(Oc1cccc(OC(=O)c2ccc(O)c(O)c2)c1OC(=O)c1ccc(O)c(O)c1)c1ccc(O)c(O)c1 | 94.7% | 42.2% |  |  |  |

| SMILES | inhibition at 30 µM (NCI-H1299) | inhibition of growth at 30 µM [1] | inhibition at 30 µM (HeLa) | inhibition at 30 µM (RKO) | inhibition at 30 µM (MCF7) |
| --- | --- | --- | --- | --- | --- |
| O=C(Oc1cccc(OC(=O)c2cc(O)cc(O)c2)c1OC(=O)c1cc(O)cc(O)c1)c1cc(O)cc(O)c1 | 98.7% | 41% |  |  |  |
| COc1cccc(OC(=O)c2ccccc2O)c1OC(=O)c1ccccc1O | 50.5% | 18% |  |  |  |
| COc1cc(C(=O)Oc2cccc(OC)c2OC(=O)c2cc(OC)c(OC)c(OC)c2)cc(OC)c1OC | 33.3% | 22.2% |  |  |  |
| O=C(Oc1ccc(Cl)cc1OC(=O)c1cccc(O)c1)c1cccc(O)c1 | 93.1% | 44.5% |  |  |  |
| COc1cccc(OC(=O)c2cccc(O)c2)c1OC(=O)c1cccc(O)c1 | 79% |  |  |  |  |
| COc1cc(C(=O)Oc2cccc(F)c2OC(=O)c2cc(OC)c(OC)c(OC)c2)cc(OC)c1OC | 7.9% | 19.6% |  |  |  |
| O=C(Oc1ccc(Cl)cc1OC(=O)c1ccc(O)cc1)c1ccc(O)cc1 | 79% |  |  |  |  |
| O=C(Oc1cccc(F)c1OC(=O)c1ccccc1O)c1ccccc1O | 51% |  |  |  |  |
| O=C(Oc1cccc(OC(=O)c2cccc(O)c2)c1OC(=O)c1cccc(O)c1)c1cccc(O)c1 | 99.7% | 59.3% |  |  |  |
| O=C(Oc1cccc(OC(=O)c2ccc(O)cc2)c1OC(=O)c1ccc(O)cc1)c1ccc(O)cc1 | 88.7% | 34.8% |  |  |  |
| O=C(Oc1ccc(Cl)cc1OC(=O)c1cc(O)cc(O)c1)c1cc(O)cc(O)c1 | 95.2% | 38.8% |  |  |  |
| COc1cccc(OC(=O)c2cc(O)cc(O)c2)c1OC(=O)c1cc(O)cc(O)c1 | 69.4% |  |  |  |  |
| COc1cccc(C(=O)Oc2cccc(OC)c2OC(=O)c2cccc(OC)c2)c1 | 32.1% | 18.3% |  |  |  |
| COc1cccc(OC(=O)c2ccc(O)cc2)c1OC(=O)c1ccc(O)cc1 | 86.5% | 36.6% |  |  |  |
| COc1cccc(C(=O)Oc2cccc(OC(=O)c3cccc(OC)c3)c2OC(=O)c2cccc(OC)c2)c1 | 66.2% |  |  |  |  |
| COc1cc(C(=O)Oc2cccc(OC(=O)c3cc(OC)c(OC)c(OC)c3)c2OC(=O)c2cc(OC)c(OC)c(OC)c2)cc(OC)c1OC | 41.1% |  |  |  |  |

— ChEMBL document CHEMBL1156294, “Novel inhibitors of basal glucose transport as potential anticancer agents” (2010)
